Drawing on BindingDB's records for patent US20250034159 (Oric Pharmaceuticals, 2025), this text covers IC50 for four compounds.

Molecules are shown by their SMILES. pIC50: −log10 of the molar value.

The target of assay [1] is T1, Epidermal growth factor receptor [DEL746-750,C797S] (Homo sapiens, UniProt P00533, C797S/DEL746-750).
T1 construct: gene EGFR
Description: Biochemical Assay Against EGFR Exon 19 Deletion/C797S Protein (EGFR d19/CS). Here is the method: (§1) In wells A1 and A24, were added 12 μL of DMSO. […] To a well in Row A were added 12 μL of each 10 mM test compound stock (100% DMSO). […] The final intermediate dilution plate contained 4×16-point compound serial dilutions in assay buffer. The DMSO concentration was 10%. The intermediate compound dilution plate was transferred to the Bravo and the “5 uL dispense into ARP.pro” protocol was run. To the black low volume assay ready plates, were added 5 μL of 40 uM Phosphosens peptide sensor/4 mM ATP working solution to each well. […] To column 24, was added 10 μL of assay buffer. The final DMSO concentration was 2.5%.

Assay [2] concerns the target Epidermal growth factor receptor [L858R,C797S] (Human, UniProt P00533, C797S/L858R). Nature of the assay: Biochemical Assay Against EGFR L858R/C797S Protein (EGFR LR/CS). Here is the method:
as §1

T1 sequence (P00533 with tags, fused parts or gaps C797S/DEL746-750 limits assumed): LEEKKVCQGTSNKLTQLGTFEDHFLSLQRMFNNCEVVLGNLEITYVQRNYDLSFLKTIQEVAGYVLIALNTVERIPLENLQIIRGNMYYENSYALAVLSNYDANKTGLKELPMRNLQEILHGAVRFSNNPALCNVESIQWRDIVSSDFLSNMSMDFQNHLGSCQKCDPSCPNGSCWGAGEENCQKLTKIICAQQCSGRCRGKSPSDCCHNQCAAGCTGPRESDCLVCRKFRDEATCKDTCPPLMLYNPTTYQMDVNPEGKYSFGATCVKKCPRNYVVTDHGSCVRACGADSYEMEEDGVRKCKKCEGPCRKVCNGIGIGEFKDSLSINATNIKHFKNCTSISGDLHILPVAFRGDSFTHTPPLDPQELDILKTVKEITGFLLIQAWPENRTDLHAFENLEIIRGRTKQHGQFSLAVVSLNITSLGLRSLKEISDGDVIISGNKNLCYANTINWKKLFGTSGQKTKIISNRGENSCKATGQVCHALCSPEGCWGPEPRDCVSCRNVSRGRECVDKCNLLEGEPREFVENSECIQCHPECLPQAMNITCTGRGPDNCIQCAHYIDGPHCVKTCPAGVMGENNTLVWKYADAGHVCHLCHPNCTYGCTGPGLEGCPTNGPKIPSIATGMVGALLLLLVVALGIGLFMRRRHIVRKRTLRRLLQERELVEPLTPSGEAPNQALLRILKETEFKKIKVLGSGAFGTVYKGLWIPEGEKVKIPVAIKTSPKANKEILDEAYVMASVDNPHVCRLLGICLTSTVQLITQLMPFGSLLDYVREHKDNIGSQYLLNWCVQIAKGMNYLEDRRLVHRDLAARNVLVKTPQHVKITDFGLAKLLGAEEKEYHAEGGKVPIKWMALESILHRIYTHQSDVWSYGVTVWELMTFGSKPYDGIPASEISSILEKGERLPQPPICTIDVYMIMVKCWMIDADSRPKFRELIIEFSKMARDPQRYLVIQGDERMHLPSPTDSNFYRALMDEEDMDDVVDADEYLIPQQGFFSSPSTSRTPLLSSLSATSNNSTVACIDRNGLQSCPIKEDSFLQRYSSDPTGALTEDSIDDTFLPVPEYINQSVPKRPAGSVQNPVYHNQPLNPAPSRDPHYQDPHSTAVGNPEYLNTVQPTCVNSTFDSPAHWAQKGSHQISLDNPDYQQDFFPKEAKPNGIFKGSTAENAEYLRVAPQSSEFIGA
Chain of Epidermal growth factor receptor [L858R,C797S] (P00533 25-1210 C797S/L858R limits assumed): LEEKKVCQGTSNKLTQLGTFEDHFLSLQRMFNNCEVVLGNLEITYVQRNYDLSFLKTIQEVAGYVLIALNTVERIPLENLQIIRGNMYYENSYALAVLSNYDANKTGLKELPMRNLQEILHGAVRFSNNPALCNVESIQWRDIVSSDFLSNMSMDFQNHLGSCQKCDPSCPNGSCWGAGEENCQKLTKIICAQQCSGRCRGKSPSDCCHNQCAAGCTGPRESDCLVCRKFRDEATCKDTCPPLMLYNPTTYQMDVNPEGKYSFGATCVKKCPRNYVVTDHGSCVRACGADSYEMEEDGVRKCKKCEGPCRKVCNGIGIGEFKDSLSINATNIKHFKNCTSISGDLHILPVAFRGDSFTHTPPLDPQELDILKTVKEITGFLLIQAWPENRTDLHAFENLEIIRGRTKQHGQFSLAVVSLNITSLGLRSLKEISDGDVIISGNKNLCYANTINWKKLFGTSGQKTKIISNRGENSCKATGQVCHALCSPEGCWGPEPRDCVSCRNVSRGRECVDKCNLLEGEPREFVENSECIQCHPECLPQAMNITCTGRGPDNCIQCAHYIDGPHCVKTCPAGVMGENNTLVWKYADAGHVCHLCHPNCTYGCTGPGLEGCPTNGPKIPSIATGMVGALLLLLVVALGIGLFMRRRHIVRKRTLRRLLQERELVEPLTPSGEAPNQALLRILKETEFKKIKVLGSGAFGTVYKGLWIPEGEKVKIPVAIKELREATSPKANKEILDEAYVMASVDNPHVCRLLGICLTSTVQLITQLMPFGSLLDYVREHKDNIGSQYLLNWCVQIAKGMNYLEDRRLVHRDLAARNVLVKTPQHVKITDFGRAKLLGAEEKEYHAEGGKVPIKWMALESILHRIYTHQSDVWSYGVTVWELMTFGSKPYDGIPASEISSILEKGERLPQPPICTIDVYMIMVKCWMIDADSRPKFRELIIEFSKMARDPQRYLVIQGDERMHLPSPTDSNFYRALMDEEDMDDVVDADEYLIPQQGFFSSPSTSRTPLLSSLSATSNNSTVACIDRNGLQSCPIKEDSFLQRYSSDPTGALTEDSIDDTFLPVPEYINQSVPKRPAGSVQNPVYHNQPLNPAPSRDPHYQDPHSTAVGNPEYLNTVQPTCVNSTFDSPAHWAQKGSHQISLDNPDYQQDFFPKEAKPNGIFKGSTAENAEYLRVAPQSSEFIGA

With `Fc1ccc(-c2nn(CCC(F)F)cc2-c2ccnc3oc(-c4ccccc4)cc23)cc1` [US20250034159, Example 157], the negative logarithm of the IC50 (pIC50) (as a rule, −log10 of the IC50, conventionally taken in molar units) in assay [1] is 9.24. Compound `O=S1(=O)CC(n2cc(-c3ncnc4oc(C5=CCN(S(=O)(=O)C6CC6)CC5)cc34)c(-c3ccc(F)cc3)n2)C1` [US20250034159, Example 177] had a pIC50 in assay [1] of 9.38. Compound `Fc1ccc(-c2nn(CCOC(F)(F)F)cc2-c2ncnc3oc(-c4ccccc4)cc23)cc1` [US20250034159, Example 144] showed a pIC50 in assay [1] of 8.62. As for `O=S1(=O)CCC(n2cc(-c3ncnc4oc(-c5ccccc5)cc34)c(-c3ccc(F)cc3)n2)CC1` [US20250034159, Example 83], the results for the negative-log IC50 (pIC50) in assay [2] and in assay [1] were 8.20 and 8.07, respectively.
